Reference: ChEMBL document CHEMBL1147631, “Aminomethylpyrimidines as novel DPP-IV inhibitors: a 10(5)-fold activity increase by optimization of aromatic substituents” (Bioorg Med Chem Lett, 2004)
pIC50: −log10 of the molar value.

Target: Dipeptidyl peptidase 4 (Homo sapiens, UniProt P27487)
Assay: Inhibitory activity against Dipeptidylpeptidase IV mediated cleavage of Ala-Pro-7-amido-4-tri-fluoromethylcoumarin in a fluorogenic assay
Assay type: functional

Dipeptidyl peptidase 4, sequence (P27487 whole entry): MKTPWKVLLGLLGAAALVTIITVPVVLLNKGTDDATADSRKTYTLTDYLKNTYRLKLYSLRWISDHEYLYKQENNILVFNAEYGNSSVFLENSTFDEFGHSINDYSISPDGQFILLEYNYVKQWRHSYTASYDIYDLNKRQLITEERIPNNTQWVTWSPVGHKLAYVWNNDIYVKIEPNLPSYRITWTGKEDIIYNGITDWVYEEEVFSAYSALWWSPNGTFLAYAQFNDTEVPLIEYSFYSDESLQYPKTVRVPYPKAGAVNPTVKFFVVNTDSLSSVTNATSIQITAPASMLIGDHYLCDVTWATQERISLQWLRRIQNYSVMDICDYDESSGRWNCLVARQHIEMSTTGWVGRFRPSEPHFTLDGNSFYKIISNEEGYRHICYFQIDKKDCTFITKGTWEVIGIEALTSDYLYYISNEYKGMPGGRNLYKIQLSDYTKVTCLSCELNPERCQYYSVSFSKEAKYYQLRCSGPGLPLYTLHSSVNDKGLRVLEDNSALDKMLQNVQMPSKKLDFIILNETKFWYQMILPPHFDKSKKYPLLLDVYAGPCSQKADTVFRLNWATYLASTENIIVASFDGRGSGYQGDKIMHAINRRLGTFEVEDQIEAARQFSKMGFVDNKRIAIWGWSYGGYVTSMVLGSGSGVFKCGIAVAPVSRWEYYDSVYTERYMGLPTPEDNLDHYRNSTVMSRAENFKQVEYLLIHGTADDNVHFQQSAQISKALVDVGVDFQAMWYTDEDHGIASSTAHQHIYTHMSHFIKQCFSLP

SMILES	pIC50
NCc1c(N)nc(-c2cccc(C(F)(F)F)c2)nc1-c1ccc(Cl)cc1Cl	6.89
COc1ccccc1-c1nc(-c2ccccc2)nc(N)c1CN	5.82
Cc1ccc(-c2nc(-c3ccccc3)nc(N)c2CN)cc1	6.00
NCc1c(N)nc(-c2ccccc2)nc1-c1ccccc1F	4.85
NCc1c(N)nc(-c2ccccc2)nc1-c1cccc(C(F)(F)F)c1	3.77
NCc1c(N)nc(-c2ccccc2F)nc1-c1ccc(Cl)cc1Cl	7.33
NCc1c(N)nc(-c2ccccc2)nc1-c1ccccc1C(F)(F)F	4.85
NCc1c(N)nc(-c2ccccc2)nc1-c1cccc(Cl)c1	4.51
NCc1c(N)nc(-c2ccccc2)nc1-c1ccccc1Cl	5.60
Cc1ccccc1-c1nc(-c2ccccc2)nc(N)c1CN	5.82
NCc1c(N)nc(-c2ccccc2)nc1-c1ccc(Cl)cc1	5.85
COc1ccc(-c2nc(-c3ccccc3)nc(N)c2CN)cc1	4.33
NCc1c(N)nc(-c2ccccc2)nc1-c1ccccc1	4.38
NCc1c(N)nc(-c2ccccc2)nc1-c1cccc(F)c1	4.40
NCc1c(N)nc(-c2ccccc2)nc1-c1ccc(F)cc1	4.74
NCc1c(N)nc(-c2ccccc2)nc1-c1ccc(C(F)(F)F)cc1	5.96
Cc1cccc(-c2nc(-c3ccccc3)nc(N)c2CN)c1	4.70
COc1cccc(-c2nc(-c3ccccc3)nc(N)c2CN)c1	4.10

Further lines, results first:

pIC50	SMILES
5.76	Cc1ccccc1-c1nc(N)c(CN)c(-c2ccc(Cl)cc2Cl)n1
7.28	NCc1c(N)nc(-c2ccc(Cl)cc2)nc1-c1ccc(Cl)cc1Cl
6.47	COc1cccc(-c2nc(N)c(CN)c(-c3ccc(Cl)cc3Cl)n2)c1
9.70	NCc1c(N)nc(-c2ccc(F)cc2)nc1-c1ccc(Cl)cc1Cl
8.00	NCc1c(N)nc(-c2ccccc2)nc1-c1ccc(Cl)cc1Cl
7.00	COc1ccc(-c2nc(N)c(CN)c(-c3ccc(Cl)cc3Cl)n2)cc1
9.05	Cc1cccc(-c2nc(N)c(CN)c(-c3ccc(Cl)cc3Cl)n2)c1
6.46	COc1ccccc1-c1nc(N)c(CN)c(-c2ccc(Cl)cc2Cl)n1
6.62	NCc1c(N)nc(-c2cccc(Cl)c2)nc1-c1ccc(Cl)cc1Cl
7.05	Cc1ccc(-c2nc(N)c(CN)c(-c3ccc(Cl)cc3Cl)n2)cc1
6.74	NCc1c(N)nc(-c2ccc(C(F)(F)F)cc2)nc1-c1ccc(Cl)cc1Cl
8.52	NCc1c(N)nc(-c2ccc(F)c(F)c2)nc1-c1ccc(Cl)cc1Cl
